Test results published in the supplement of paper PMC13380429.

What was measured:
Caco-2 [1] = assay: drug sensitivity score (DSS) for viability; higher = more toxic; extreme values may be limits of the assay; conditions: 72 h
HepG2 [2] = assay: as above; conditions: 72 h
Calu-3 [3] = assay: as above; conditions: 72 h
Vero E6 [4] = assay: as above; conditions: 72 h
U2OS [5] = assay: as above; conditions: 72 h
A549-ACE2 [6] = assay: drug-induced phospholipidosis relative to tamoxifen; higher = more phospholipidosis
Caco-2 [7] = assay: cell viability relative to DMSO; higher = less toxic; conditions: 72 h
HepG2 [8] = assay: as above; conditions: 72 h
Calu-3 [9] = assay: as above; conditions: 72 h
Vero E6 [10] = assay: as above; conditions: 72 h
U2OS [11] = assay: as above; conditions: 72 h
[12] = system: A549-ACE2 infected with SARS-CoV-2; assay: cell count relative to DMSO; higher = less toxic; conditions: 24 h
[13] = system: A549-ACE2 infected with SARS-CoV-2; assay: morphology score (similarity to uninfected cells); higher = more like uninfected cells; conditions: 24 h
[14] = system: A549-ACE2 infected with SARS-CoV-2; assay: SARS-CoV-2 infection rate relative to DMSO; higher = more infection; conditions: 24 h
A549-ACE2 [15] = assay: phospholipidosis EC50; higher = less potent phospholipidosis inducer
Caco-2 [16] = assay: relative viability EC50 (midpoint between 100% and the lowest measured viability); higher = less toxic; conditions: 72 h
HepG2 [17] = assay: as above; conditions: 72 h
Calu-3 [18] = assay: as above; conditions: 72 h
Vero E6 [19] = assay: as above; conditions: 72 h
U2OS [20] = assay: as above; conditions: 72 h

`CNCc1ccc(C)c(NC(=O)c2ccc(Nc3nc(-c4ccccc4)c4ccccc4n3)cc2)c1` gave a drug sensitivity score (Caco-2 [1]) of 4.3, a drug sensitivity score (HepG2 [2]) of 5.4 and a drug sensitivity score (Calu-3 [3]) of 6.6. For the same compound, the drug sensitivity score (Vero E6 [4]) was 3.4, the drug sensitivity score (U2OS [5]) was 3.5 and the drug-induced phospholipidosis (A549-ACE2 [6]; 0.3 µM, 24 h) was 5.53%. It also gave a drug-induced phospholipidosis (A549-ACE2 [6]; 0.3 µM, 48 h) of 5.67%, a drug-induced phospholipidosis (A549-ACE2 [6]; 0.3 µM, 72 h) of 1.97% and a drug-induced phospholipidosis (A549-ACE2 [6]; 0.833333 µM, 24 h) of 23.7%. It also gave a drug-induced phospholipidosis (A549-ACE2 [6]; 0.833333 µM, 48 h) of 17.1%, a drug-induced phospholipidosis (A549-ACE2 [6]; 0.833333 µM, 72 h) of 13.2% and a drug-induced phospholipidosis (A549-ACE2 [6]; 3.33333 µM, 24 h) of 77.2%. It also gave a drug-induced phospholipidosis (A549-ACE2 [6]; 3.33333 µM, 48 h) of 89.4%, a drug-induced phospholipidosis (A549-ACE2 [6]; 3.33333 µM, 72 h) of 86.2% and a drug-induced phospholipidosis (A549-ACE2 [6]; 6.66667 µM, 24 h) of 98.9%. The drug-induced phospholipidosis (A549-ACE2 [6]; 6.66667 µM, 48 h) was 102%, the drug-induced phospholipidosis (A549-ACE2 [6]; 6.66667 µM, 72 h) was 99.1% and the drug-induced phospholipidosis (A549-ACE2 [6]; 10 µM, 24 h) was 84.8%. It also gave a drug-induced phospholipidosis (A549-ACE2 [6]; 10 µM, 48 h) of 92.4%, a drug-induced phospholipidosis (A549-ACE2 [6]; 10 µM, 72 h) of 115% and a drug-induced phospholipidosis (A549-ACE2 [6]; 30 µM, 24 h) of 99.7%. For the same compound, the cell viability (Caco-2 [7]; 1 nM) was 93.8%, the cell viability (Caco-2 [7]; 10 nM) was 99.5% and the cell viability (Caco-2 [7]; 100 nM) was 90.1%. For the same compound, the cell viability (Caco-2 [7]; 1000 nM) was 98.3%, the cell viability (Caco-2 [7]; 10000 nM) was 25.4% and the cell viability (HepG2 [8]; 1 nM) was 107%. It also gave a cell viability (HepG2 [8]; 10 nM) of 104%, a cell viability (HepG2 [8]; 100 nM) of 105% and a cell viability (HepG2 [8]; 1000 nM) of 88.3%. For the same compound, the cell viability (HepG2 [8]; 10000 nM) was 36.8%, the cell viability (Calu-3 [9]; 1 nM) was 96.6% and the cell viability (Calu-3 [9]; 10 nM) was 101%. The cell viability (Calu-3 [9]; 100 nM) was 102%, the cell viability (Calu-3 [9]; 1000 nM) was 92% and the cell viability (Calu-3 [9]; 10000 nM) was 4.1%. It also gave a cell viability (Vero E6 [10]; 1 nM) of 101%, a cell viability (Vero E6 [10]; 10 nM) of 99.6% and a cell viability (Vero E6 [10]; 100 nM) of 100%. The cell viability (Vero E6 [10]; 1000 nM) was 98.2%, the cell viability (Vero E6 [10]; 10000 nM) was 42.1% and the cell viability (U2OS [11]; 1 nM) was 100%. The cell viability (U2OS [11]; 10 nM) was 101%, the cell viability (U2OS [11]; 100 nM) was 103% and the cell viability (U2OS [11]; 1000 nM) was 100%. The cell viability (U2OS [11]; 10000 nM) was 35.3%, the cell count ([12]; 0.1 µM) was 103% and the cell count ([12]; 0.3 µM) was 101%. The cell count ([12]; 1 µM) was 108%, the cell count ([12]; 3 µM) was 127% and the morphology score ([13]; 0.1 µM) was 0.21. For the same compound, the morphology score ([13]; 0.3 µM) was 0.36, the morphology score ([13]; 1 µM) was 0.34 and the morphology score ([13]; 3 µM) was 0.88. The SARS-CoV-2 infection rate ([14]; 0.1 µM) was 99%, the SARS-CoV-2 infection rate ([14]; 0.3 µM) was 86% and the SARS-CoV-2 infection rate ([14]; 1 µM) was 89%. For the same compound, the SARS-CoV-2 infection rate ([14]; 3 µM) was 24%, the “phospholipidosis EC50” value (A549-ACE2 [15]; 24 h) was 1580 nM and the “phospholipidosis EC50” value (A549-ACE2 [15]; 48 h) was 1490 nM. For the same compound, the “phospholipidosis EC50” value (A549-ACE2 [15]; 72 h) was 2070 nM, the “relative viability EC50” value (Caco-2 [16]) was 3000 nM and the “relative viability EC50” value (HepG2 [17]) was 1810 nM. For the same compound, the “relative viability EC50” value (Calu-3 [18]) was 2480 nM, the “relative viability EC50” value (Vero E6 [19]) was 2940 nM and the “relative viability EC50” value (U2OS [20]) was 3210 nM.
With `Cc1cccc(Nc2nc(-c3ccncc3)cs2)c1` the drug sensitivity score (Caco-2 [1]) was 0.3, the drug sensitivity score (HepG2 [2]) was 3.7 and the drug sensitivity score (Vero E6 [4]) was 2.1. It also gave a drug sensitivity score (U2OS [5]) of 0, a drug-induced phospholipidosis (A549-ACE2 [6]; 0.3 µM, 24 h) of 2.6% and a drug-induced phospholipidosis (A549-ACE2 [6]; 0.3 µM, 48 h) of 5.9%. For the same compound, the drug-induced phospholipidosis (A549-ACE2 [6]; 0.3 µM, 72 h) was 6.14%, the drug-induced phospholipidosis (A549-ACE2 [6]; 0.833333 µM, 24 h) was 8.64% and the drug-induced phospholipidosis (A549-ACE2 [6]; 0.833333 µM, 48 h) was 9.76%. It also gave a drug-induced phospholipidosis (A549-ACE2 [6]; 0.833333 µM, 72 h) of 9.12%, a drug-induced phospholipidosis (A549-ACE2 [6]; 3.33333 µM, 24 h) of 73.8% and a drug-induced phospholipidosis (A549-ACE2 [6]; 3.33333 µM, 48 h) of 87.3%. For the same compound, the drug-induced phospholipidosis (A549-ACE2 [6]; 3.33333 µM, 72 h) was 70%, the drug-induced phospholipidosis (A549-ACE2 [6]; 6.66667 µM, 24 h) was 102% and the drug-induced phospholipidosis (A549-ACE2 [6]; 6.66667 µM, 48 h) was 116%. For the same compound, the drug-induced phospholipidosis (A549-ACE2 [6]; 6.66667 µM, 72 h) was 125%, the drug-induced phospholipidosis (A549-ACE2 [6]; 10 µM, 24 h) was 110% and the drug-induced phospholipidosis (A549-ACE2 [6]; 10 µM, 48 h) was 123%. For the same compound, the drug-induced phospholipidosis (A549-ACE2 [6]; 10 µM, 72 h) was 120%, the drug-induced phospholipidosis (A549-ACE2 [6]; 30 µM, 24 h) was 57.3% and the drug-induced phospholipidosis (A549-ACE2 [6]; 30 µM, 48 h) was 69.6%. It also gave a cell viability (Caco-2 [7]; 1 nM) of 102%, a cell viability (Caco-2 [7]; 10 nM) of 111% and a cell viability (Caco-2 [7]; 100 nM) of 97.4%. The cell viability (Caco-2 [7]; 1000 nM) was 98%, the cell viability (Caco-2 [7]; 10000 nM) was 85.8% and the cell viability (HepG2 [8]; 1 nM) was 104%. The cell viability (HepG2 [8]; 10 nM) was 108%, the cell viability (HepG2 [8]; 100 nM) was 97.2% and the cell viability (HepG2 [8]; 1000 nM) was 94.1%. For the same compound, the cell viability (HepG2 [8]; 10000 nM) was 48.5%, the cell viability (Vero E6 [10]; 1 nM) was 95.5% and the cell viability (Vero E6 [10]; 10 nM) was 111%. For the same compound, the cell viability (Vero E6 [10]; 100 nM) was 99%, the cell viability (Vero E6 [10]; 1000 nM) was 94.9% and the cell viability (Vero E6 [10]; 10000 nM) was 70.6%. For the same compound, the cell viability (U2OS [11]; 1 nM) was 99.2%, the cell viability (U2OS [11]; 10 nM) was 98.5% and the cell viability (U2OS [11]; 100 nM) was 95.8%. The cell viability (U2OS [11]; 1000 nM) was 98.5%, the cell viability (U2OS [11]; 10000 nM) was 93.6% and the cell count ([12]; 0.1 µM) was 108%. The cell count ([12]; 0.3 µM) was 107%, the cell count ([12]; 1 µM) was 110% and the cell count ([12]; 3 µM) was 106%. The morphology score ([13]; 0.1 µM) was 0.25, the morphology score ([13]; 0.3 µM) was 0.02 and the morphology score ([13]; 1 µM) was 0.28. It also gave a morphology score ([13]; 3 µM) of 0.31, an SARS-CoV-2 infection rate ([14]; 0.1 µM) of 92% and an SARS-CoV-2 infection rate ([14]; 0.3 µM) of 91%. For the same compound, the SARS-CoV-2 infection rate ([14]; 1 µM) was 83%, the SARS-CoV-2 infection rate ([14]; 3 µM) was 50% and the “phospholipidosis EC50” value (A549-ACE2 [15]; 24 h) was 2940 nM. For the same compound, the “phospholipidosis EC50” value (A549-ACE2 [15]; 48 h) was 2720 nM, the “phospholipidosis EC50” value (A549-ACE2 [15]; 72 h) was 3300 nM and the “relative viability EC50” value (Caco-2 [16]) was over 10000 nM. The “relative viability EC50” value (HepG2 [17]) was 2220 nM and the “relative viability EC50” value (U2OS [20]) was over 10000 nM.
